From patent US9938258B2 (Karyopharm Therapeutics Inc., priority 2012, dated 2018)
Structures can show the parent of a compound that is named as a salt. Where two headings read alike, the source gives them in different places.

Legend:
[1] = system: MS751 cells; assay: MTT cell proliferation assay, MS751; type: cell-based, human; conditions: Homo sapiens, MS751, MS751 cells, read-out: MTT Assay IC50, MS751
Outline: (§1)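 Absorbance at 490 nm of solubilized formazan, produced during roughly 4 h MTT incubation, gave percent inhibition relative to negative control. Compounds spanned eight concentrations between 1 nM and 30 μM on cells plated overnight at 5,000-10,000 per well.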

[2] = system: Z138 cells; assay: MTT cell proliferation assay, Z138; type: cell-based; conditions: Homo sapiens, Z-138, Z138 cells, read-out: MTT Assay IC50, Z138
Outline: as §1

[3] = system: 3T3 cells; assay: MTT cell proliferation assay, 3T3; type: cell-based, mouse; conditions: Mus musculus, NIH3T3, 3T3 cells, read-out: MTT Assay IC50, 3T3
Outline: as §1

[4] = approximately 64-72 hours incubation
[5] = eight concentrations 1 nM to 30 μM, incubation approximately 64-72 hours

| SMILES | IC50 [1, 4] [µM] | IC50 [2, 4] [µM] | IC50 [3, 4] [µM] | IC50 [1, 5] [µM] | IC50 [2, 5] [µM] | IC50 [3, 5] [µM] |
| --- | --- | --- | --- | --- | --- | --- |
| CC(=O)c1ccc(-c2cc(Cl)c3c(c2)CC(CNC(=O)/C=C/c2csc4ccccc24)O3)s1 (stereo not drawn) [Compound 200, (E)-N-((5-(5-acetylthiophen-2-yl)-7-chloro-2,3-dihydrobenzofuran-2-yl)methyl)-3-(benzo[b]thiophen-3-yl) acrylamide] | > 30 | > 30 | > 30 | – | – | – |
| CC(=O)c1ccc(-c2cc(Cl)c3c(c2)CC(CNC(=O)/C=C/c2nccn2-c2ccccc2)O3)s1 (stereo not drawn) [Compound 201, (E)-N-((5-(5-acetylthiophen-2-yl)-7-chloro-2,3-dihydrobenzofuran-2-yl)methyl)-3-(1-phenyl-1H-imidazol-2-yl)acrylamide] | 5 to 30 | 5 to 30 | 5 to 30 | – | – | – |
| CC(=O)c1ccc(-c2cc(Cl)c3c(c2)CC(CNC(=O)/C=C/c2cnc(C(C)(C)C)s2)O3)s1 (stereo not drawn) [Compound 205, (E)-N-((5-(5-acetylthiophen-2-yl)-7-chloro-2,3-dihydrobenzofuran-2-yl)methyl)-3-(2-tert-butylthiazol-5-yl)acrylamide] | 5 to 30 | 0.1 to 5 | > 30 | – | – | – |
| CC(=O)c1ccc(-c2cc(Cl)c3c(c2)CC(CNC(=O)/C=C/c2csc(-c4ccc(F)cc4)n2)O3)s1 (stereo not drawn) [Compound 206, (E)-N-((5-(5-acetylthiophen-2-yl)-7-chloro-2,3-dihydrobenzofuran-2-yl)methyl)-3-(2-(4-fluorophenyl)thiazol-4-yl)acrylamide] | > 30 | > 30 | > 30 | – | – | – |
| CC(=O)c1ccc(-c2cc(Cl)c3c(c2)CC(CNC(=O)/C=C/c2nccs2)O3)s1 (stereo not drawn) [Compound 207] | > 30 | > 30 | > 30 | – | – | – |
| CC(=O)c1ccc(-c2cc(Cl)c3c(c2)CC(CNC(=O)/C=C/c2c(C)nn(-c4ccc(F)cc4)c2C)O3)s1 (stereo not drawn) [Compound 208, (E)-N-((5-(5-acetylthiophen-2-yl)-7-chloro-2,3-dihydrobenzofuran-2-yl)methyl)-3-(1-(4-fluorophenyl)-3,5-dimethyl-1H-pyrazol-4-yl)acrylamide] | 5 to 30 | 5 to 30 | > 30 | – | – | – |
| CC(=O)c1ccc(-c2cc(Cl)c3c(c2)CC(CNC(=O)/C=C/c2cc(C)n(-c4ccc(Cl)cc4)c2C)O3)s1 (stereo not drawn) [Compound 209, (E)-N-((5-(5-acetylthiophen-2-yl)-7-chloro-2,3-dihydrobenzofuran-2-yl)methyl)-3-(1-(4-chlorophenyl)-2,5-dimethyl-1H-pyrrol-3-yl)acrylamide] | > 30 | > 30 | > 30 | – | – | – |
| CC(=O)c1ccc(-c2cc(Cl)c3c(c2)CC(CNC(=O)/C=C/c2cncc(S(=O)(=O)N(C)C)c2)O3)s1 (stereo not drawn) [Compound 210, (E)-N-((5-(5-acetylthiophen-2-yl)-7-chloro-2,3-dihydrobenzofuran-2-yl)methyl)-3-(5-(N,N-dimethylsulfamoyl)pyridin-3-yl)acrylamide] | 5 to 30 | > 30 | > 30 | – | – | – |
| CC(=O)c1ccc(-c2cc(Cl)c3c(c2)CC(CNC(=O)/C=C/c2c(C)nn(-c4ccccc4)c2Cl)O3)s1 (stereo not drawn) [Compound 211, (E)-N-((5-(5-acetylthiophen-2-yl)-7-chloro-2,3-dihydrobenzofuran-2-yl)methyl)-3-(5-chloro-3-methyl-1-phenyl-1H-pyrazol-4-yl)acrylamide] | > 30 | > 30 | > 30 | – | – | – |
| CC(=O)c1ccc(-c2cc(Cl)c3c(c2)CC(CNC(=O)/C=C/c2[nH]cnc2C)O3)s1 (stereo not drawn) [Compound 212, (E)-N-((5-(5-acetylthiophen-2-yl)-7-chloro-2,3-dihydrobenzofuran-2-yl)methyl)-3-(4-methyl-1H-imidazol-5-yl)acrylamide] | 5 to 30 | 5 to 30 | > 30 | – | – | – |
| CC(=O)c1ccc(-c2cc(Cl)c3c(c2)CC(CNC(=O)/C=C/c2ccn(C)c2)O3)s1 (stereo not drawn) [Compound 213, (E)-N-((5-(5-acetylthiophen-2-yl)-7-chloro-2,3-dihydrobenzofuran-2-yl)methyl)-3-(1-methyl-1H-pyrrol-3-yl)acrylamide] | > 30 | > 30 | > 30 | – | – | – |
| CC(=O)c1ccc(-c2ccc(Cl)c3c2CC(CNC(=O)/C=C/c2ccc(N)nc2)O3)s1 (stereo not drawn) [Compound 218, hydrochloride] | < 0.1 | < 0.1 | 5 to 30 | – | – | – |
| CC(=O)c1ccc(-c2cc(Cl)c3c(c2)CC(CNC(=O)/C=C/Cc2cccnc2)O3)s1 (stereo not drawn) [Compound 222, (E)-N-((5-(5-acetylthiophen-2-yl)-7-chloro-2,3-dihydrobenzofuran-2-yl)methyl)-4-(pyridin-3-yl)but-2-enamide] | 0.1 to 5 | 0.1 to 5 | 5 to 30 | – | – | – |
| CC(=O)c1ccc(-c2cc(Cl)c3c(c2)CC(CNC(=O)/C=C/n2cncn2)O3)s1 (stereo not drawn) [Compound 229, (E)-N-((5-(5-acetylthiophen-2-yl)-7-chloro-2,3-dihydrobenzofuran-2-yl)methyl)-3-(1H-1,2,4-triazol-1-yl)acrylamide] | > 30 | > 30 | > 30 | – | – | – |
| CN(C)C(=O)c1ccc(-c2cc(Cl)c3c(c2)CC(CNC(=O)/C=C/c2ccc(N)nc2)O3)cc1 (stereo not drawn) [Compound 233, (E)-4-(2-((3-(6-aminopyridin-3-yl)acrylamido)methyl)-7-chloro-2,3-dihydrobenzofuran-5-yl)-N,N-dimethylbenzamide] | 0.1 to 5 | < 0.1 | 5 to 30 | – | – | – |
| Nc1ccc(/C=C/C(=O)NCC2Cc3cc(-c4ccc(C(=O)N5CCCCC5)cc4)cc(Cl)c3O2)cn1 (stereo not drawn) [Compound 234, (E)-3-(6-aminopyridin-3-yl)-N-((7-chloro-5-(4-(piperidine-1-carbonyl)phenyl)-2,3-dihydrobenzofuran-2-yl)methyl)acrylamide] | < 0.1 | < 0.1 | 5 to 30 | – | – | – |
| Cc1noc(C)c1-c1cc(Cl)c2c(c1)CC(CNC(=O)/C=C/c1cccnn1)O2 (stereo not drawn) [Compound 235, (E)-N-((7-chloro-5-(3,5-dimethylisoxazol-4-yl)-2,3-dihydrobenzofuran-2-yl)methyl)-3-(pyridazin-3-yl)acrylamide] | 0.1 to 5 | 0.1 to 5 | 5 to 30 | – | – | – |
| O=C(/C=C/c1cccnn1)NCC1Cc2cc(-c3ccc(C(=O)N4CCOCC4)cc3)cc(Cl)c2O1 (stereo not drawn) [Compound 236, (E)-N-((7-chloro-5-(4-(morpholine-4-carbonyl)phenyl)-2,3-dihydrobenzofuran-2-yl)methyl)-3-(pyridazin-3-yl)acrylamide] | 0.1 to 5 | 0.1 to 5 | 0.1 to 5 | – | – | – |
| CN1CCN(C(=O)c2ccc(-c3cc(Cl)c4c(c3)CC(CNC(=O)/C=C/c3ccc(N)nc3)O4)cc2)CC1 (stereo not drawn) [Compound 237, (E)-3-(6-aminopyridin-3-yl)-N-((7-chloro-5-(4-(4-methylpiperazine-1-carbonyl)phenyl)-2,3-dihydrobenzofuran-2-yl)methyl)acrylamide] | < 0.1 | < 0.1 | 0.1 to 5 | – | – | – |
| Cc1cc(-c2cc(Cl)c3c(c2)CC(CNC(=O)/C=C/c2ccc(N)nc2)O3)ccc1C(=O)N1CCOCC1 (stereo not drawn) [Compound 238, (E)-3-(6-aminopyridin-3-yl)-N-((7-chloro-5-(3-methyl-4-(morpholine-4-carbonyl)phenyl)-2,3-dihydrobenzofuran-2-yl)methyl)acrylamide] | < 0.1 | < 0.1 | 0.1 to 5 | – | – | – |
| Nc1ccc(/C=C/C(=O)NCC2Cc3cc(-c4cccc(C(=O)N5CCOCC5)c4)cc(Cl)c3O2)cn1 (stereo not drawn) [Compound 239, (E)-3-(6-aminopyridin-3-yl)-N-((7-chloro-5-(3-(morpholine-4-carbonyl)phenyl)-2,3-dihydrobenzofuran-2-yl)methyl)acrylamide] | < 0.1 | < 0.1 | 0.1 to 5 | – | – | – |
| C=C(Cc1cccnc1)C(=O)NCC1Cc2cc(-c3ccc(C(C)=O)s3)cc(Cl)c2O1 (stereo not drawn) [Compound 240, N-((5-(5-acetylthiophen-2-yl)-7-chloro-2,3-dihydrobenzofuran-2-yl)methyl)-2-(pyridin-3-ylmethyl)acrylamide] | 5 to 30 | 5 to 30 | > 30 | – | – | – |
| Nc1ccc(/C=C/C(=O)NCC2Cc3cc(-c4ccc(C(=O)N5CCOCC5)nc4)cc(Cl)c3O2)cn1 (stereo not drawn) [Compound 248, (E)-3-(6-aminopyridin-3-yl)-N-((7-chloro-5-(6-(morpholine-4-carbonyl)pyridin-3-yl)-2,3-dihydrobenzofuran-2-yl)methyl)acrylamide] | 0.1 to 5 | < 0.1 | > 30 | – | – | – |
| Nc1ccc(/C=C/C(=O)NCC2Cc3c(-c4ccc(C(=O)N5CCOCC5)cc4)ccc(Cl)c3O2)cn1 (stereo not drawn) [Compound 249, (E)-3-(6-aminopyridin-3-yl)-N-((7-chloro-4-(4-(morpholine-4-carbonyl)phenyl)-2,3-dihydrobenzofuran-2-yl)methyl)acrylamide] | < 0.1 | < 0.1 | 0.1 to 5 | – | – | – |
| CC(=O)c1ccc(-c2cc(Cl)c3c(c2)CC(CNC(=O)C#Cc2cccnc2)O3)s1 (stereo not drawn) [Compound 251, N-((5-(5-acetylthiophen-2-yl)-7-chloro-2,3-dihydrobenzofuran-2-yl)methyl)-3-(pyridin-3-yl)propiolamide] | – | – | – | 0.1 to 5 | 0.1 to 5 | 5 to 30 |
| CC(=O)c1ccc(-c2cc(Cl)c3c(c2)CC(CNC(=O)/C=C/c2cncnc2)O3)s1 (stereo not drawn) [Compound 254, (E)-N-((5-(5-acetylthiophen-2-yl)-7-chloro-2,3-dihydrobenzofuran-2-yl)methyl)-3-(pyrimidin-5-yl)acrylamide] | – | – | – | > 30 | > 30 | > 30 |
